Like-named read-outs stand apart in the source and are kept apart here.
What was measured:
[1] = system: HT-29 human colon cancer cells; experiment: In vitro antiproliferative activity (resazurin, 96 h); format: cell-based; details: read-out: IC50 grade of inhibitory effect on tumor cells, HT-29
Experimental: (§1) Objective: to test the antiproliferative activity of the compound in the present disclosure against a variety of tumor cells. […] Amonafide and lomustine were commercially available. Test cells: human colon cancer cells (HT-29, COLO 205), human lung cancer cells (NCI-H460, A549), and human leukemia cells (HL-60, U-937). Test methods: each tumor cell was processed separately. Cells were cultured in a culture medium at 37° C. for 24 h for later use. The cells in the exponential growth phase were harvested, treated with trypsin to prepare a cell suspension, the cell suspension was centrifuged, and then the cell pellet was resuspended in a small amount of fresh culture medium as a stock cell solution. A 96-well plate was taken, and blank control groups, cell control groups and compound treatment groups were set up. […] The remaining wells were filled with 200 μL of 10% PBS. The plate was placed in an incubator overnight. 100 μL of each test compound at different dilution concentrations was added into each well of the compound treatment groups, 10 and the dilution concentrations of the compound were as shown in Table 2. […] After adding the drug, the plate was placed in an incubator to be cultured for 96 hours, 22 μL of resazurin sodium solution (Alarm blue, SIGMA R7017) was added into each well, and the plate was returned to the incubator to be cultured for another 4 h. The plate was shaken for 10 s after being taken out. A fluorescence value of each well was tested at 530/590 nm. The above operations were repeated for three times. The IC50 value of each test compound was calculated with the Prism7 software. The IC50 was divided into different grades according to value, that is: […]

[2] = system: COLO 205 human colon cancer cells; experiment: as above; format: cell-based; details: read-out: IC50 grade of inhibitory effect on tumor cells, COLO 205
Experimental: as §1

[3] = system: HL-60 human leukemia cells; experiment: as above; format: cell-based; details: read-out: IC50 grade of inhibitory effect on tumor cells, HL-60
Experimental: as §1

[4] = system: A549 human lung cancer cells; experiment: as above; format: cell-based; details: read-out: IC50 grade of inhibitory effect on tumor cells, A549
Experimental: as §1

[5] = system: U-937 human leukemia cells; experiment: as above; format: cell-based; details: read-out: IC50 grade of inhibitory effect on tumor cells, U-937
Experimental: as §1

[6] = system: NCI-H460 human lung cancer cells; experiment: as above; format: cell-based; details: read-out: IC50 grade of inhibitory effect on tumor cells, NCI-H460
Experimental: as §1

[7] = system: COLO 205 transplanted tumor; experiment: In vivo antitumor effect in COLO 205 transplanted tumor model; design: species or system BALB/c nude mice; details: nude mice, COLO 205 xenograft, intragastric 10 mg/kg once a day, 21 times, last day
Experimental: Objective: to further test the in vivo antitumor effects of compounds of the present disclosure
Test compounds: I-01, I-08.
Test animals: 5-week-old female BALB/c nude mice were fed normally for 7 days, and mice with good physical conditions were selected for experiments.
Tumor cells: human colon cancer cells COLO 205 were subjected to cell culture in a RPMI-1640 medium containing 10% fetal bovine serum. The passaging was carried out for 1-2 times a week, with a passaging ratio of 1:3 to 1:6.
Modeling and grouping: COLO 205 cells in a logarithmic growth phase were harvested and injected into the anterior right mammary fat pad of nude mice with an injection volume of 5×10^6 cells per animal to establish a COLO 205 transplanted tumor model. The animal status was observed regularly, tumor diameter was measured, and tumor volume was calculated. After the tumor volume reached approximately 150 mm^3, tumor-bearing mice in good health and with similar tumor volumes were selected and randomly divided into a solvent control group, an I-01 group, and an I-08 group.
Administration: each test compound was dissolved in solvent, and each animal group was treated with corresponding compounds or blank solvent, respectively. The administration method was intragastric administration, with a dosage of 10 mg/kg, once a day, and a total of 21 times.
Result: on the last day of the experiment, tumor diameter and tumor weight were measured, tumor growth inhibition rate (GI) and tumor weight inhibition rate (IR) were calculated.
Tumor growth inhibition rate=100%×[1−(Tvt−Tvini)÷(Cvt−Cvini)], where Tvt represents tumor volume of the treatment group at the end of the experiment, Tvini represents initial tumor volume of the treatment group, Cvt represents tumor volume of the solvent control group at the end of the experiment, and Cvini represents initial tumor volume of the solvent control group.
Tumor weight inhibition rate=100%×(Cw−Tw)÷Cw, where Cw represents tumor weight of the solvent control group at the end of the experiment, and Tw represents tumor weight of the treatment group at the end of the experiment.

[8] = Homo sapiens, HT-29, 96 h culture, resazurin fluorescence
[9] = Homo sapiens, COLO 205, 96 h culture, resazurin fluorescence
[10] = Homo sapiens, HL-60, 96 h culture, resazurin fluorescence
[11] = Homo sapiens, A549, 96 h culture, resazurin fluorescence
[12] = Homo sapiens, U-937, 96 h culture, resazurin fluorescence
[13] = Homo sapiens, NCI-H460, 96 h culture, resazurin fluorescence
[14] = HT-29, 96 h culture, resazurin fluorescence
[15] = COLO 205, 96 h culture, resazurin fluorescence
[16] = HL-60, 96 h culture, resazurin fluorescence
[17] = A549, 96 h culture, resazurin fluorescence
[18] = U-937, 96 h culture, resazurin fluorescence
[19] = NCI-H460, 96 h culture, resazurin fluorescence

SMILES | IC50 [1, 8] [µM] | IC50 [2, 9] [µM] | IC50 [3, 10] [µM] | IC50 [4, 11] [µM] | IC50 [5, 12] [µM] | IC50 [6, 13] [µM] | further results
CC(C)(C)OC(=O)NCCCNCCCN1C(=O)c2cccc3cc([N+](=O)[O-])cc(c23)C1=O [Cob281] | 5 to 10 | 11 to 20 | 5 to 10 | 5 to 10 | 5 to 10 | 11 to 20 | –
CN(C)CCN1C(=O)c2cccc3cc(N)cc(c23)C1=O [Amonafide] | 11 to 20 | 5 to 10 | 5 to 10 | 1 to 5 | 11 to 20 | 11 to 20 | –
CC(C)(C)OC(=O)NCCCN1CCN(CCCN2C(=O)c3cccc4cc([N+](=O)[O-])cc(c34)C2=O)CC1 [Cob280] | 5 to 10 | 11 to 20 | 5 to 10 | 11 to 20 | 5 to 10 | 11 to 20 | –
CCN(CCNC(=O)N(C)CC)CCN1C(=O)c2cccc3cc([N+](=O)[O-])cc(c23)C1=O [Compound I-04] | 1 to 5 | 5 to 10 | 1 to 5 | 1 to 5 | 1 to 5 | 1 to 5 | –
CN(C)C(=O)N(C)CCCNCN1C(=O)c2cccc3cccc(c23)C1=O [Compound I-07] | 5 to 10 | 1 to 5 | 1 to 5 | 5 to 10 | 5 to 10 | 1 to 5 | –
O=NN(CCCl)C(=O)NCCN1C(=O)c2cccc3cc([N+](=O)[O-])cc(c23)C1=O [Compound 1] | – | – | – | – | – | – | IC50 ([1]; Homo sapiens, HT-29, 96 h): 21 to 50 µM; IC50 ([2]; Homo sapiens, COLO 205, 96 h): 21 to 50 µM; IC50 ([3]; Homo sapiens, HL-60, 96 h): 11 to 20 µM; IC50 ([4]; Homo sapiens, A549, 96 h): 5 to 10 µM; IC50 ([5]; Homo sapiens, U-937, 96 h): 21 to 50 µM; IC50 ([6]; Homo sapiens, NCI-H460, 96 h): 11 to 20 µM
CN(CCNC(=O)N(CCCl)N=O)CCN1C(=O)c2cccc3cc([N+](=O)[O-])cc(c23)C1=O [Compound I-01] | – | – | – | – | – | – | Tumor growth inhibition rate (%) [7]: 75.3%; Tumor weight inhibition rate (%) [7]: 69.3%; IC50 [1, 14]: < 0.5 µM; IC50 [2, 15]: < 0.5 µM; IC50 [3, 16]: < 0.5 µM; IC50 [4, 17]: 0.5 to 1 µM; IC50 [5, 18]: < 0.5 µM; IC50 [6, 19]: < 0.5 µM
O=NN(CCCl)C(=O)NCCCCN1C(=O)c2cccc3cccc(c23)C1=O [Compound 1d] | – | – | – | – | – | – | IC50 ([1]; Homo sapiens, HT-29, 96 h): 21 to 50 µM; IC50 ([2]; Homo sapiens, COLO 205, 96 h): 21 to 50 µM; IC50 ([3]; Homo sapiens, HL-60, 96 h): 21 to 50 µM; IC50 ([4]; Homo sapiens, A549, 96 h): 21 to 50 µM; IC50 ([5]; Homo sapiens, U-937, 96 h): 11 to 20 µM; IC50 ([6]; Homo sapiens, NCI-H460, 96 h): 51 to 100 µM
O=NN(CCCl)C(=O)N1CCN(CCN2C(=O)c3cccc4cc([N+](=O)[O-])cc(c34)C2=O)CC1 [Compound I-08] | – | – | – | – | – | – | Tumor growth inhibition rate (%) [7]: 43.5%; Tumor weight inhibition rate (%) [7]: 31.2%; IC50 [1, 14]: 1 to 5 µM; IC50 [2, 15]: 0.5 to 1 µM; IC50 [3, 16]: 1 to 5 µM; IC50 [4, 17]: 0.5 to 1 µM; IC50 [5, 18]: 0.5 to 1 µM; IC50 [6, 19]: 1 to 5 µM
CCN(CC)C(=O)N(C)CCNCN1C(=O)c2cccc3c(OC)ccc(c23)C1=O [Compound I-06] | 1 to 5 | 5 to 10 | 1 to 5 | 1 to 5 | 1 to 5 | 5 to 10 | –
O=NN(CCCl)C(=O)NC1CCCCC1 [Lomustine] | 51 to 100 | > 100 | 21 to 50 | > 100 | 11 to 20 | 51 to 100 | –
